The source made the active and inactive calls. How the calls were made is not given here.
Tested on: CCRIS mutagenicity, Ames/micronucleus/aberration tests
Assay: CCRIS mutagenicity studies
[1] = Test System: AMES SALMONELLA TYPHIMURIUM, Strain/Indicator: TA98, Metabolic Activation: NONE, Method: STANDARD PLATE
[2] = Test System: AMES SALMONELLA TYPHIMURIUM, Strain/Indicator: TA98, Metabolic Activation: RAT, LIVER, S-9, AROCLOR 1254, Method: STANDARD PLATE
[3] = Test System: AMES SALMONELLA TYPHIMURIUM, Strain/Indicator: TA100, Metabolic Activation: NONE, Method: STANDARD PLATE
[4] = Test System: AMES SALMONELLA TYPHIMURIUM, Strain/Indicator: TA100, Metabolic Activation: RAT, LIVER, S-9, AROCLOR 1254, Method: STANDARD PLATE
[5] = Test System: AMES SALMONELLA TYPHIMURIUM, Strain/Indicator: TA98, Metabolic Activation: NONE, Method: PREINCUBATION
[6] = Test System: AMES SALMONELLA TYPHIMURIUM, Strain/Indicator: TA100, Metabolic Activation: NONE, Method: PREINCUBATION

For `O=C(O)COc1cc(Cl)c(Cl)cc1Cl`, the mutagenic call (End Point: IN VITRO CHROMOSOMAL ABERRATIONS, Test System: CHINESE HAMSTER OVARY CELLS, Metabolic Activation: NONE) was “inactive; negative”, the mutagenic call (End Point: IN VITRO CHROMOSOMAL ABERRATIONS, Test System: CHINESE HAMSTER OVARY CELLS, Metabolic Activation: RAT, LIVER, S-9, AROCLOR 1254) was “active; positive; precipitation occurred at all doses” and the mutagenic call (Test System: AMES SALMONELLA TYPHIMURIUM, Strain/Indicator: TA97, Metabolic Activation: NONE, Method: STANDARD PLATE) was “inactive; negative”. For the same compound, the mutagenic call (Test System: AMES SALMONELLA TYPHIMURIUM, Strain/Indicator: TA97, Metabolic Activation: RAT, LIVER, S-9, AROCLOR 1254, Method: STANDARD PLATE) was “inactive; negative”, the mutagenic call (Test System: AMES SALMONELLA TYPHIMURIUM, Strain/Indicator: TA98, Metabolic Activation: NONE) was “inactive; negative” and the mutagenic call [1] was “inactive; negative”. The mutagenic call (Test System: AMES SALMONELLA TYPHIMURIUM, Strain/Indicator: TA98, Metabolic Activation: RAT, LIVER, S-9, AROCLOR 1254) was “inactive; negative”, the mutagenic call [2] was “inactive; negative” and the mutagenic call (Test System: AMES SALMONELLA TYPHIMURIUM, Strain/Indicator: TA100, Metabolic Activation: NONE) was “inactive; negative”. For the same compound, the mutagenic call [3] was “inactive; negative”, the mutagenic call (Test System: AMES SALMONELLA TYPHIMURIUM, Strain/Indicator: TA100, Metabolic Activation: RAT, LIVER, S-9, AROCLOR 1254) was “inactive; negative” and the mutagenic call [4] was “inactive; negative”. For the same compound, the mutagenic call (Test System: AMES SALMONELLA TYPHIMURIUM, Strain/Indicator: TA102, Metabolic Activation: NONE) was “inactive; negative”, the mutagenic call (Test System: AMES SALMONELLA TYPHIMURIUM, Strain/Indicator: TA102, Metabolic Activation: NONE, Method: STANDARD PLATE) was “inactive; negative” and the mutagenic call (Test System: AMES SALMONELLA TYPHIMURIUM, Strain/Indicator: TA102, Metabolic Activation: RAT, LIVER, S-9, AROCLOR 1254) was “inactive; negative”. For the same compound, the mutagenic call (Test System: AMES SALMONELLA TYPHIMURIUM, Strain/Indicator: TA102, Metabolic Activation: RAT, LIVER, S-9, AROCLOR 1254, Method: STANDARD PLATE) was “inactive; negative”, the mutagenic call (Test System: AMES SALMONELLA TYPHIMURIUM, Strain/Indicator: TA104, Metabolic Activation: NONE) was “inactive; negative” and the mutagenic call (Test System: AMES SALMONELLA TYPHIMURIUM, Strain/Indicator: TA104, Metabolic Activation: RAT, LIVER, S-9, AROCLOR 1254) was “inactive; negative”.
For `O=Cc1cccc2cccnc12`, the mutagenic call [1] was “inactive; negative”, the mutagenic call [2] was “inactive; negative” and the mutagenic call [3] was “inactive; negative”. For the same compound, the mutagenic call [4] was “active; positive”, the mutagenic call (Test System: AMES SALMONELLA TYPHIMURIUM, Strain/Indicator: TA1535, Metabolic Activation: NONE, Method: STANDARD PLATE) was “inactive; negative” and the mutagenic call (Test System: AMES SALMONELLA TYPHIMURIUM, Strain/Indicator: TA1535, Metabolic Activation: RAT, LIVER, S-9, AROCLOR 1254, Method: STANDARD PLATE) was “inactive; negative”. The mutagenic call (Test System: AMES SALMONELLA TYPHIMURIUM, Strain/Indicator: TA1537, Metabolic Activation: NONE, Method: STANDARD PLATE) was “inactive; negative” and the mutagenic call (Test System: AMES SALMONELLA TYPHIMURIUM, Strain/Indicator: TA1537, Metabolic Activation: RAT, LIVER, S-9, AROCLOR 1254, Method: STANDARD PLATE) was “inactive; negative”.
With `O=C1C(=O)c2ccccc2-c2ccccc21` the mutagenic call (Test System: AMES SALMONELLA TYPHIMURIUM, Strain/Indicator: TA97A, Metabolic Activation: NONE, Method: PREINCUBATION) was “inactive; negative”, the mutagenic call [5] was “inactive; negative” and the mutagenic call [6] was “inactive; negative”. The mutagenic call (Test System: AMES SALMONELLA TYPHIMURIUM, Strain/Indicator: TA102, Metabolic Activation: NONE, Method: PREINCUBATION) was “inactive; negative” and the mutagenic call (Test System: AMES SALMONELLA TYPHIMURIUM, Strain/Indicator: TA104, Metabolic Activation: NONE, Method: PREINCUBATION) was “inactive; negative”.
With `CCCCNNCCCC` the mutagenic call (Test System: AMES SALMONELLA TYPHIMURIUM, Strain/Indicator: TA100, Metabolic Activation: NONE, Method: PREINCUBATION (11 HR GROWTH PERIOD FOR BACTERIA)) was “active; positive”, the mutagenic call (Test System: AMES SALMONELLA TYPHIMURIUM, Strain/Indicator: TA100, Metabolic Activation: RAT, LIVER, S-9, PCB, Method: PREINCUBATION (11 HR GROWTH PERIOD FOR BACTERIA)) was “inactive; negative” and the mutagenic call (Test System: AMES SALMONELLA TYPHIMURIUM, Strain/Indicator: TA102, Metabolic Activation: NONE, Method: PREINCUBATION (5 OR 7 HR GROWTH PERIOD FOR BACTERIA)) was “active; positive”. For the same compound, the mutagenic call (Test System: AMES SALMONELLA TYPHIMURIUM, Strain/Indicator: TA102, Metabolic Activation: RAT, LIVER, S-9, PCB, Method: PREINCUBATION (5 OR 7 HR GROWTH PERIOD FOR BACTERIA)) was “active; positive”.
For `ClCCOCCCl`, the mutagenic call (End Point: IN VITRO CHROMOSOMAL ABERRATIONS, Test System: CHO CELLS, Metabolic Activation: NONE) was “inactive; negative”, the mutagenic call (End Point: IN VITRO CHROMOSOMAL ABERRATIONS, Test System: CHO CELLS, Metabolic Activation: RAT, LIVER, S-9, AROCLOR 1254) was “inactive; negative” and the mutagenic call (Test System: AMES SALMONELLA TYPHIMURIUM, Strain/Indicator: TA98, Metabolic Activation: HAMSTER, LIVER, S-9, PHENOBARBITAL AND BETA-NAPHTHOFLAVONE, Method: PREINCUBATION) was “inactive; negative”. The mutagenic call [5] was “inactive; negative”, the mutagenic call (Test System: AMES SALMONELLA TYPHIMURIUM, Strain/Indicator: TA98, Metabolic Activation: RAT, LIVER, S-9, PHENOBARBITAL AND BETA-NAPHTHOFLAVONE, Method: PREINCUBATION) was “inactive; negative” and the mutagenic call (Test System: AMES SALMONELLA TYPHIMURIUM, Strain/Indicator: TA100, Metabolic Activation: HAMSTER, LIVER, S-9, PHENOBARBITAL AND BETA-NAPHTHOFLAVONE, Method: PREINCUBATION) was “inactive; negative”. For the same compound, the mutagenic call (Test System: AMES SALMONELLA TYPHIMURIUM, Strain/Indicator: TA100, Metabolic Activation: NONE, Method: DESICCATOR) was “active; positive”, the mutagenic call [6] was “inactive; negative” and the mutagenic call (Test System: AMES SALMONELLA TYPHIMURIUM, Strain/Indicator: TA100, Metabolic Activation: RAT, LIVER, S-9, PHENOBARBITAL AND BETA-NAPHTHOFLAVONE, Method: PREINCUBATION) was “inactive; negative”. The mutagenic call (Test System: AMES SALMONELLA TYPHIMURIUM, Strain/Indicator: TA1535, Metabolic Activation: NONE, Method: PREINCUBATION) was “active; positive”, the mutagenic call (Test System: AMES SALMONELLA TYPHIMURIUM, Strain/Indicator: TA1537, Metabolic Activation: HAMSTER, LIVER, S-9, PHENOBARBITAL AND BETA-NAPHTHOFLAVONE, Method: PREINCUBATION) was “inactive; negative” and the mutagenic call (Test System: AMES SALMONELLA TYPHIMURIUM, Strain/Indicator: TA1537, Metabolic Activation: NONE, Method: PREINCUBATION) was “inactive; negative”. For the same compound, the mutagenic call (Test System: AMES SALMONELLA TYPHIMURIUM, Strain/Indicator: TA1537, Metabolic Activation: RAT, LIVER, S-9, PHENOBARBITAL AND BETA-NAPHTHOFLAVONE, Method: PREINCUBATION) was “inactive; negative”, the mutagenic call (Test System: E. COLI, Strain/Indicator: WP2UVRA, Metabolic Activation: NONE, Method: PREINCUBATION) was “inactive; negative” and the mutagenic call (Test System: E. COLI, Strain/Indicator: WP2UVRA, Metabolic Activation: RAT, LIVER, S-9, PHENOBARBITAL AND BETA-NAPHTHOFLAVONE, Method: PREINCUBATION) was “inactive; negative”.
For `CS(=O)(=O)N1C2c3ccccc3-c3ccccc3C21` (configuration not stated), the mutagenic call [3] was “active; positive” and the mutagenic call (Test System: CHINESE HAMSTER V-79, Strain/Indicator: V-79/6-THIOGUANINE, Metabolic Activation: NONE, Method: STANDARD PLATE) was “inactive; negative”.
